Literature values as cited in patent US12419848B2, “Treatment of hyperinflammatory syndrome” (priority 2020, dated 2025).

Experiments:
[1] = molecular target: T1, P2X7R (Homo sapiens, UniProt Q99572); details: read-out: EC50 to activate P2X7R; cited from earlier work
T1 sequence (Q99572 1-595): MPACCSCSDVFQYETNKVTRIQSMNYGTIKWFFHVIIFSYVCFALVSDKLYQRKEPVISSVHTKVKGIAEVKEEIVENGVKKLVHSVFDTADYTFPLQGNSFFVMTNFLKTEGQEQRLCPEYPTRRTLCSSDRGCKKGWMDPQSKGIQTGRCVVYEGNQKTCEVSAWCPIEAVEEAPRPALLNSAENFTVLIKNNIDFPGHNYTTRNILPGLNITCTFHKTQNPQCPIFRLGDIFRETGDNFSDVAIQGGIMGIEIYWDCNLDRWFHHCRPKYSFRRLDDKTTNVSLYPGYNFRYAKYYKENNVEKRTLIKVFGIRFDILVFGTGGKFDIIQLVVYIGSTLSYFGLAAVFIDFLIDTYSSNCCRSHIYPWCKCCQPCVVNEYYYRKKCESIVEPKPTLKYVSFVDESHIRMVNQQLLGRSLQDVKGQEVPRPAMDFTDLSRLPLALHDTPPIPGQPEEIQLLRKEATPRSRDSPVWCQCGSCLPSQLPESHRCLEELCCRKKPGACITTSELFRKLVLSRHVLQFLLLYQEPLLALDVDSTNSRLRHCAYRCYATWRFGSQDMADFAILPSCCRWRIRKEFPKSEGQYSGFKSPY

[2] = molecular target: P1 receptors; details: cited from earlier work

| Compound | EC50 [1] | EC50 (extracellular concentration for half maximal effect) [2] |
| --- | --- | --- |
| Nc1ncnc2c1ncn2[C@@H]1O[C@H](COP(=O)(O)OP(=O)(O)OP(=O)(O)O)[C@@H](O)[C@H]1O [ATP] | > 1 mM | – |
| Nc1ncnc2c1ncn2[C@@H]1O[C@H](CO)[C@@H](O)[C@H]1O [adenosine] | – | nanomolar range |
